Values quoted from earlier work in patent US20250222110A1, “METHODS AND COMPOSITIONS FOR TREATMENT OF AGE-RELATED CATARACTS” (LIVIONEX, Inc., priority 2024, published 2025).

Conditions: 79° F.

## CS(C)(=O)=O [MSM, methylsulfonylmethane]
  water solubility: 34 % w/v
